Values quoted from earlier work in patent publication US20250000839A1, “PHARMACEUTICAL COMPOSITION COMPRISING ENAVOGLIFLOZIN” (DAEWOONG PHARMACEUTICAL CO., LTD., priority 2021, published 2025).

What was measured:
[1] = at a very low dose of 1/100th of the dose compared to the same class of drugs
human SGLT2 = molecular target: T1, human SGLT2 (Homo sapiens, UniProt P31639); settings: disclosed in U.S. Patent Publication No. 2015/0152075
T1 sequence (P31639 1-672): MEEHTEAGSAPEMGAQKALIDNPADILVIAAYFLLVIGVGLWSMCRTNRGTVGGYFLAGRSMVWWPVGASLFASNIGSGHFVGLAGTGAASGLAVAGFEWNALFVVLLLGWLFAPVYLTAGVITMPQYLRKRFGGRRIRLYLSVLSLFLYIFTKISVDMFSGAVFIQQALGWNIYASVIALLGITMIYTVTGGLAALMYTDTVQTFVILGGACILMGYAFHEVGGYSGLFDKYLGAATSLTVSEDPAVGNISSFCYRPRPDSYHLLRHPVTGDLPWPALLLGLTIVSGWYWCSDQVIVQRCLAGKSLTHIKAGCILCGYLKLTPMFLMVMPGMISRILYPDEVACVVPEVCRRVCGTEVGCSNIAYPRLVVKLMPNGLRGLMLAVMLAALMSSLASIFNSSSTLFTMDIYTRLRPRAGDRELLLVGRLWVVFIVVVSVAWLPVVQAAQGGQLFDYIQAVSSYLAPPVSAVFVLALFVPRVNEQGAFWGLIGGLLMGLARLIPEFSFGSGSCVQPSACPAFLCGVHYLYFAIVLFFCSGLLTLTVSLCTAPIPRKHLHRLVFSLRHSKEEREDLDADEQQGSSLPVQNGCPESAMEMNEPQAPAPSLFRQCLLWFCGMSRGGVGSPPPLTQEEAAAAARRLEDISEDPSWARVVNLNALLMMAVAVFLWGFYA

[2] = phase 2 clinical trials; 0.1 mg, 0.3 mg and 0.5 mg groups

inhibitory effect on human SGLT2 activity (human SGLT2): excellent inhibitory effect
SMILES: OC[C@H]1O[C@@H](c2cc(Cc3ccc(C4CC4)cc3)c(Cl)c3c2CCO3)[C@H](O)[C@@H](O)[C@@H]1O [enavogliflozin, (2S,3R,4R,5S,6R)-2-(7-chloro-6-(4-cyclopropylbenzyl)-2,3-dihydrobenzofuran-4-yl)-6-(hydroxymethyl)tetrahydro-2H-pyran-3,4,5-triol]
urinary sugar secretion (glucose excreted in urine) efficacy [1]: excellent | blood sugar-lowering effect compared to the placebo [2]: statistically significant blood sugar-lowering effect
